This test concerns the target HLA-B*4002 (Homo sapiens, UniProt P01889, A65T/A93T/A95T/D138N/D201E/D98Y/E176V/E204Q/E69K/K202T/N87E/Q56L/Q94N/R180L/S48T/Y33H/Y91S). Briefly: Class I peptide-binding assay, HLA-B*4002 (B44 supertype). As to conditions: HER2/neu-derived B44 peptides, Table 27; binding to purified HLA-B*4002.

Consider one molecule from patent US20060094649A1, “Hla-a1,-a2,-a3,-a24,-b7, and-b44 tumor associated antigen peptides and compositions” (priority 2002, published 2006).

Broadly, the IC50 is the concentration at which inhibition is half-maximal. A high value points to lower potency. `CC[C@H](C)[C@H](NC(=O)[C@@H](NC(=O)[C@H](CS)NC(=O)[C@@H](NC(=O)[C@@H]1CCCN1C(=O)[C@@H]1CCCN1C(=O)[C@H](CCC(N)=O)NC(=O)[C@@H]1CCCN1C(=O)[C@H](CC(C)C)NC(=O)[C@H](CCCNC(=N)N)NC(=O)[C@H](CCC(=O)O)NC(=O)CN)[C@@H](C)CC)[C@@H](C)O)C(=O)O` [compound 493] displayed an IC50 of 9.5 nM.
